Test results published in article PMC10794144, “A novel antibiotic class targeting the lipopolysaccharide transporter” (Nature, 2024).
Read-outs that look alike come from different tables or passages of the source.

System: A. baumannii
Assay: microbe, parasite or virus in culture
Conditions: Acinetobacter baumannii, 100%
Summary of the method: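 MIC was taken as the lowest concentration without visible growth, or past which OD600 no longer fell. Testing followed CLSI M07 and M100 broth microdilution, using 0.5 McFarland-derived inocula in CAMHB (LB for A. baylyi isolates).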

Measured: MIC

C[C@@H](O)[C@H]1C(=O)N2C(C(=O)O)=C(S[C@@H]3CN[C@H](C(=O)N(C)C)C3)[C@H](C)[C@H]12 [meropenem, reference compound]
32 µg/mL: read-out: MIC 100%, ROB08704, Study ROC012 | read-out: MIC 100%, ROB08705, Study LGC281440 | read-out: MIC 100%, ROB08705, Study LGC282160 | read-out: MIC 100%, ROB08705, Study LGC282623 | read-out: MIC 100%, ROB08705, Study LGC283932 | read-out: MIC 100%, ROB08705, Study LGC284200 | read-out: MIC 100%, ROB08705, Study LGC284879 | read-out: MIC 100%, ROB08705, Study LGC285582 | read-out: MIC 100%, ROB08705, Study LGC286210 | read-out: MIC 100%, ROB08705, Study LGC293598 | read-out: MIC 100%, ROB08705, Study LGC294355 | read-out: MIC 100%, ROB08705, Study LGC295147 | read-out: MIC 100%, ROB08705, Study LGC296813 | read-out: MIC 100%, ROB08705, Study LGC299544 | read-out: MIC 100%, ROB08705, Study LGC308175 | read-out: MIC 100%, ROB08705, Study ROC003 | read-out: MIC 100%, ROB08705, Study ROC007 | read-out: MIC 100%, ROB08705, Study ROC009 | read-out: MIC 100%, ROB08705, Study ROC012 | read-out: MIC 100%, ROB08705, Study ROC013 | read-out: MIC 100%, ROB08706, Study LGC281440 | read-out: MIC 100%, ROB08706, Study LGC284200 | read-out: MIC 100%, ROB08706, Study ROC010 | read-out: MIC 100%, ROB08707, Study LGC277937 | read-out: MIC 100%, ROB08707, Study LGC279800 | read-out: MIC 100%, ROB08707, Study LGC281440 | read-out: MIC 100%, ROB08707, Study LGC282160 | read-out: MIC 100%, ROB08707, Study LGC284200 | read-out: MIC 100%, ROB08707, Study LGC285582 | read-out: MIC 100%, ROB08707, Study LGC286210 | read-out: MIC 100%, ROB08707, Study LGC293598 | read-out: MIC 100%, ROB08707, Study LGC294355 | read-out: MIC 100%, ROB08707, Study LGC296813 | read-out: MIC 100%, ROB08707, Study LGC301026 | read-out: MIC 100%, ROB08707, Study LGC308175 | read-out: MIC 100%, ROB08707, Study ROC004 | read-out: MIC 100%, ROB08707, Study ROC005 | read-out: MIC 100%, ROB08707, Study ROC008 | read-out: MIC 100%, ROB08707, Study ROC009 | read-out: MIC 100%, ROB08707, Study ROC010 | read-out: MIC 100%, ROB08707, Study ROC012 | read-out: MIC 100%, ROB08707, Study ROC013 | read-out: MIC 100%, ROB08708, Study LGC279800 | read-out: MIC 100%, ROB08708, Study LGC282623 | read-out: MIC 100%, ROB08708, Study LGC283932 | read-out: MIC 100%, ROB08708, Study LGC284200 | read-out: MIC 100%, ROB08708, Study LGC284879 | read-out: MIC 100%, ROB08708, Study LGC285582
16 µg/mL: read-out: MIC 100%, ROB08705, Study LGC279800 | read-out: MIC 100%, ROB08708, Study LGC281440 | read-out: MIC 100%, ROB08708, Study LGC282160 | read-out: MIC 100%, ROB08708, Study LGC286210 | read-out: MIC 100%, ROB08708, Study LGC293598 | read-out: MIC 100%, ROB08708, Study LGC294355
> 64 µg/mL: read-out: MIC 100%, ROB08705, Study ROC008 | read-out: MIC 100%, ROB08706, Study LGC279800 | read-out: MIC 100%, ROB08706, Study ROC006 | read-out: MIC 100%, ROB08708, Study LGC277937
64 µg/mL: read-out: MIC 100%, ROB08704, Study ROC013 | read-out: MIC 100%, ROB08705, Study LGC277937 | read-out: MIC 100%, ROB08705, Study LGC301026 | read-out: MIC 100%, ROB08705, Study ROC004 | read-out: MIC 100%, ROB08705, Study ROC005 | read-out: MIC 100%, ROB08705, Study ROC006 | read-out: MIC 100%, ROB08705, Study ROC010 | read-out: MIC 100%, ROB08706, Study LGC277937 | read-out: MIC 100%, ROB08706, Study LGC282160 | read-out: MIC 100%, ROB08706, Study LGC282623 | read-out: MIC 100%, ROB08706, Study LGC283932 | read-out: MIC 100%, ROB08706, Study LGC284879 | read-out: MIC 100%, ROB08706, Study LGC285582 | read-out: MIC 100%, ROB08706, Study LGC286210 | read-out: MIC 100%, ROB08706, Study LGC293598 | read-out: MIC 100%, ROB08706, Study LGC294355 | read-out: MIC 100%, ROB08706, Study LGC295147 | read-out: MIC 100%, ROB08706, Study LGC296813 | read-out: MIC 100%, ROB08706, Study LGC299544 | read-out: MIC 100%, ROB08706, Study LGC301026 | read-out: MIC 100%, ROB08706, Study LGC308175 | read-out: MIC 100%, ROB08706, Study ROC004 | read-out: MIC 100%, ROB08706, Study ROC005 | read-out: MIC 100%, ROB08706, Study ROC007 | read-out: MIC 100%, ROB08706, Study ROC008 | read-out: MIC 100%, ROB08706, Study ROC009 | read-out: MIC 100%, ROB08706, Study ROC012 | read-out: MIC 100%, ROB08706, Study ROC013 | read-out: MIC 100%, ROB08707, Study LGC282623 | read-out: MIC 100%, ROB08707, Study LGC283932 | read-out: MIC 100%, ROB08707, Study LGC284879 | read-out: MIC 100%, ROB08707, Study LGC295147 | read-out: MIC 100%, ROB08707, Study LGC299544 | read-out: MIC 100%, ROB08707, Study ROC006 | read-out: MIC 100%, ROB08707, Study ROC007
